Laboratory results: ChEMBL document CHEMBL4145498, “Novel inhibitors of the rRNA ErmC' methyltransferase to block resistance to macrolides, lincosamides, streptogramine B antibiotics” (Eur J Med Chem, 2018)

Assays:
[1] = target: T1, rRNA adenine N-6-methyltransferase (Staphylococcus aureus (strain N315)) (UniProt P0A0H2); assay: Inhibition of recombinant bacterial ErmC' expressed in Escherichia coli DH5alpha assessed as potentiation of erythromycin-mediated growth inhibition by measuring erythromycin MIC after 18 hrs by dilution method (reference value: > 2560 mg/L); details: Bacteria
T1 sequence (whole entry): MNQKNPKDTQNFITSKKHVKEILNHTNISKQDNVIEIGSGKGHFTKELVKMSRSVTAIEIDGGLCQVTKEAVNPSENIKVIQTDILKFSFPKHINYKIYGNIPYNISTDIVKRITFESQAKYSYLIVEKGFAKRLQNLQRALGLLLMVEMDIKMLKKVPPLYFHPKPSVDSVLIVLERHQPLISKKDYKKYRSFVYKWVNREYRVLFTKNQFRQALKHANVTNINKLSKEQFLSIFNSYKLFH

[2] = test system: Escherichia coli; assay: Antibacterial activity against Escherichia coli DH5alpha expressing recombinant bacterial ErmC' after 18 hrs by dilution method; format: ADME, organism-based, DH5[alpha]
[3] = target: T1, rRNA adenine N-6-methyltransferase (Staphylococcus aureus (strain N315)); assay: Uncompetitive inhibition of bacterial C-terminal His6-tagged ErmC' expressed in Escherichia coli BL21(DE3) in presence of [methyl-3H]SAM; details: Bacteria
[4] = test system: HEK293; assay: Cytotoxicity against HEK293 cells assessed as decrease in cell viability after 24 hrs by MTT assay; format: cell-based; details: human, hek293, 24 h
[5] = Cytotoxicity against HEK293 cells assessed as cell viability at 1000 uM after 24 hrs by MTT assay relative to control; format: cell-based; details: human, read-out: Activity
[6] = Cytotoxicity against HEK293 cells assessed as cell viability at 125 uM after 24 hrs by MTT assay relative to control; format: cell-based; details: human, read-out: Activity
[7] = target: T2, rRNA adenine N-6-methyltransferase (Staphylococcus aureus (strain N315), UniProt P0A0H2); assay: Inhibition of bacterial C-terminal His6-tagged ErmC' (unknown origin) expressed in Escherichia coli BL21(DE3) assessed as decrease in rRNA methylation using [methyl-3H]AdoMet measured after 1 hr; design: species or system Bacteria
T2 sequence (P0A0H2 whole entry): T1 sequence (whole entry)

[8] = target: T1, rRNA adenine N-6-methyltransferase (Staphylococcus aureus (strain N315)); assay: Inhibition of bacterial C-terminal His6-tagged ErmC' expressed in Escherichia coli BL21(DE3) assessed as decrease of protein binding to [gamma-33P]ATP-labeled 32-nt oligonucleotide at 6.25 mM after 30 mins by filter binding assay relative to control; details: Bacteria
[9] = Cytotoxicity against HEK293 cells assessed as cell viability at 125 to 1000 uM after 24 hrs by MTT assay relative to control; format: cell-based; details: human
[10] = target: T1, rRNA adenine N-6-methyltransferase (Staphylococcus aureus (strain N315)); assay: Inhibition of bacterial C-terminal His6-tagged ErmC' expressed in Escherichia coli BL21(DE3) assessed as decrease of protein binding to [gamma-33P]ATP-labeled 32-nt oligonucleotide at 5.01 mM after 30 mins by filter binding assay relative to control; details: Bacteria
[11] = target: rRNA adenine N-6-methyltransferase (Staphylococcus aureus, UniProt P02979); assay: Inhibition of Staphylococcus aureus ErmC' expressed in Bacillus subtilis BD170 assessed as decrease in rRNA methylation using [methyl-3H]AdoMet measured after 120 mins by beta-plate counting method

SMILES | MIC [1] [µg/mL] | MIC [2] | also measured
Nn1c(SCc2nc3ccccc3[nH]2)nnc1-c1ccncc1 | > 2560 | >= 100 mg/L | –
O=C(CCn1cncn1)NCc1cccc(NC(=O)C2CCCC2)c1 | 2560 | >= 100 mg/L | IC50 [7]: Not Active
O=C(Cc1cccc(F)c1)Nc1cccc(-c2ccn[nH]2)c1 | 2560 | >= 100 mg/L | –
O=C(CSc1nnc2c(n1)[nH]c1ccccc12)Nc1ccccn1 | 2560 | >= 100 mg/L | –
CCCc1cc(C(=O)Nc2cccc(OCc3ccncc3)c2)[nH]n1 | > 2560 | >= 100 mg/L | –
COC(=O)c1sc2ccccc2c1OS(=O)(=O)c1ccc(Cl)cc1 | – | – | fold change (FC) [8]: 3
O=C(Nc1nccs1)c1cc(-c2ccccn2)nc2ccccc12 | 2560 | >= 100 mg/L | –
O=C(Nc1cccc(NC(=O)c2cccc(F)c2)c1)c1ccncc1 | 2560 | >= 100 mg/L | –
O=C(c1ccn[nH]1)N1CCN(c2ccc(C(F)(F)F)cn2)CC1 | 2560 | >= 100 mg/L | IC50 [7]: Not Active
O=C(Nc1ccn(CCc2ccncc2)n1)Nc1ccc(F)cc1F | > 2560 | >= 100 mg/L | –
CC(=O)Nc1nc(C)c(-c2csc(Nc3cccc(O)c3)n2)s1 | 2000 | >= 100 mg/L | viability at 24 h, up to 1000 µM ([9]; read-out: %max): 4.5%
CN(C)c1ccc(CNC(=O)c2ccc(-n3cncn3)cc2)cc1 | 2000 | >= 100 mg/L | –
Cc1cc(S(N)(=O)=O)cc(NC(=O)Cn2cnc(C#N)n2)c1C | 2560 | >= 100 mg/L | IC50 [7]: Not Active
Cn1cnnc1-c1cccc(NC(=O)Cc2cccc(F)c2)c1 | 2560 | >= 100 mg/L | –
O=C(NCc1cccc(Cn2ccnc2)c1)c1cc2ccccc2o1 | > 2560 | >= 100 mg/L | –
O=C(c1cn(-c2ccccc2)nn1)N1CCN(c2ccc(C(F)(F)F)cn2)CC1 | 2560 | >= 100 mg/L | –
O=C(CSc1nc2[nH]cnc2c(=O)[nH]1)Nc1ccc(O)cc1 | 2560 | >= 100 mg/L | IC50 [7]: Not Active

SMILES | MIC [1] [µg/mL] | MIC [2] | also measured
FC(F)(F)c1ccc(N2CCN(Cc3c[nH]c(-c4ccccc4)n3)CC2)nc1 | 2560 | >= 100 mg/L | –
Cc1cnc(C(=O)NCCNc2ncccc2C(F)(F)F)cn1 | 2560 | >= 100 mg/L | IC50 [7]: Not Active
Cc1nccn1-c1ccc(CNc2nc3ccccc3o2)cc1F | 2000 | >= 100 mg/L | IC50 [7]: Not Active
CC(=O)Nc1ccc(S(=O)(=O)NCCc2ccncc2)cc1 | > 2560 | >= 100 mg/L | –
O=C(c1cnn[nH]1)N1CCN(c2ccc(C(F)(F)F)cn2)CC1 | 2560 | >= 100 mg/L | –
FC(F)(F)c1ccc(N2CCN(Cc3cn4ccccc4n3)CC2)nc1 | 2560 | >= 100 mg/L | –
COc1ccc(C(=O)CSc2nc(O)cc(=O)[nH]2)cc1 | 2000 | >= 100 mg/L | –
Cc1cnc(C(=O)NCCNc2ccc(C(F)(F)F)cn2)cn1 | 2560 | >= 100 mg/L | IC50 [7]: Not Active
O=C(c1csc(Nc2ncccn2)n1)N1CCN(c2ccc(C(F)(F)F)cn2)CC1 | 2000 | >= 100 mg/L | viability at 24 h, up to 1000 µM ([9]; read-out: Activity): 59 to 67%
O=C(NCCNc1ccc(C(F)(F)F)cn1)c1cnccn1 | 2000 | >= 100 mg/L | IC50 [7]: Not Active
O=C(NCCSc1ccccc1)c1ccc(-n2cncn2)cc1 | 2560 | >= 100 mg/L | –
Cc1nccc(C(=O)Nc2cc(NC(=O)c3ccccc3)ccc2C)n1 | 2560 | >= 100 mg/L | IC50 [7]: Not Active
O=C(c1cc(Cl)c[nH]1)N1CCN(c2ncc(C(F)(F)F)cc2Cl)CC1 | 2000 | >= 100 mg/L | –
O=C(Nc1cccc(NCc2ccncc2)c1)c1ccccc1Cl | 2560 | >= 100 mg/L | –
CC(=O)c1c[nH]c(C(=O)N2CCN(c3ccc(C(F)(F)F)cn3)CC2)c1 | 2560 | >= 100 mg/L | –
CC(C)c1ccc(NC(=S)N/N=C/c2cc(Cl)cc(Cl)c2O)cc1 | – | – | IC50 [11]: 450 nM

The next lines start with results.

MIC [1] [µg/mL] | MIC [2] | SMILES | also measured
2560 | >= 100 mg/L | Cc1cccc(Nc2nc(C(=O)N3CCN(c4ccc(C(F)(F)F)cn4)CC3)cs2)n1 | alphaKi [3]: 155 µM; Activity [4]: Dose-dependent effect; viability at 24 h, 1000 µM [5]: 16%; viability at 24 h, 125 µM [6]: 59%
2560 | >= 100 mg/L | O=C(Cc1cn2ccsc2n1)Nc1cccc(N2CCCC2=O)c1 | –
2560 | >= 100 mg/L | Nc1nc(N)nc(CSc2nnc(NCc3ccccc3)s2)n1 | –
2000 | >= 100 mg/L | CCC1N=C(C)C(CN2CCN(c3ccc(C(F)(F)F)cn3)CC2)=N1 (stereo not drawn) | IC50 [7]: Not Active
2560 | >= 100 mg/L | O=C(NCCNc1ncccc1C(F)(F)F)c1cnccn1 | IC50 [7]: Not Active
2560 | >= 100 mg/L | Cc1occc1C(=O)Nc1nc(CC(=O)Nc2ccccc2)cs1 | –
2560 | >= 100 mg/L | Nc1nc(N)nc(COC(=O)c2occc2COc2ccccc2)n1 | IC50 [7]: Not Active
2560 | >= 100 mg/L | O=C(c1cc(C2CC2)n[nH]1)N1CCN(c2ccc(C(F)(F)F)cn2)CC1 | –
2560 | >= 100 mg/L | O=C(NC1CCN(c2nc3ccccc3s2)CC1)c1ccncc1 | –
2000 | >= 100 mg/L | O=C(Nc1ccncc1)c1ccn(COc2ccc(F)c(Cl)c2)n1 | –
2000 | >= 100 mg/L | O=C(CSc1nc2cccnc2[nH]1)Nc1nccs1 | –
2560 | >= 100 mg/L | O=C(c1n[nH]c(=O)[nH]1)N1CCN(c2ccc(C(F)(F)F)cn2)CC1 | –
2560 | >= 100 mg/L | O=C(c1c[nH]c(=O)[nH]1)N1CCN(c2ccc(C(F)(F)F)cn2)CC1 | fold change (FC) [10]: 2; viability at 24 h, 1000 µM [5]: 68%; viability at 24 h, 125 µM [6]: 58%
> 2560 | >= 100 mg/L | O=C(NCCOc1ccc2c(c1)OCO2)c1ccc2ccccc2n1 | –
